In PubChem BioAssay AID179 (DTP/NCI, 2004):
Activity calls are given as the source filed them.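 How the source made its calls: active means compounds giving half or more protection of infected cells from virus-caused growth loss, again on retest; inactive means the rest.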 Where a SMILES comes first, the peptide text is derived from it.

Test system: CEM cells HIV-1 protection, formazan growth assay
Test: NCI AIDS Antiviral Assay
Settings: for IC50: measured here: growth of uninfected CEM cells
How it was run: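 CEM (human) cells, HIV-1 infected vs uninfected, 5-point dosing, formazan growth read-out. Retest threshold 50% protection.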

Compound	EC50	IC50	outcome
O=C(/C=C/c1ccccc1)c1cc(CN2CCOCC2)c(O)c(CN2CCOCC2)c1	> 200 µM	8.51 µM	–
Cc1ccc(C2OC(=O)c3c2ccc2ccccc32)cc1 (configuration not stated)	> 35.5 µM	> 35.5 µM	–
COc1ccc(-n2cnc3c(NC(C)(C)C(=O)O)ncnc32)cc1	> 200 µM	126 µM	–
CN1CCC(SC2Cc3cc(Cl)ccc3Sc3ccccc32)CC1 (configuration not stated)	> 69.2 µM	12 µM	–
CC(=O)NC1=CC(=O)c2cc(C)cc(O)c2C1=O	> 200 µM	5.01 µM	–
Cn1ccnc1.Cn1ccnc1.NCCN.[Cl-].[Pt+4]	> 200 µM	> 200 µM	–
BrC12c3ccccc3Sc3ccccc3C1(Br)c1ccccc12 (configuration not stated)	–	–	inactive
COc1ccc(CC(CO)NC(=O)OCc2ccccc2)cc1Oc1ccc(CC(CO)NC(=O)OCc2ccccc2)cc1 (configuration not stated)	> 200 µM	10 µM	–
O=c1oc2ccccc2c(O)c1C(c1cccs1)c1c(O)c2ccccc2oc1=O	> 200 µM	30.2 µM	–
C=C1C(=O)C=C2C=C3C(=O)C(C)(C)C[C@]3(O)C12C (some centres not stated)	> 1020 µM	0.389 µM	–
CCN1C[C@]2(C)CC[C@H](OC)C34C5C[C@@H]6[C@@H](OC)C[C@@](OC)(C5[C@H]6OCc5ccccc5)C(C13)[C@H](OC(C)=O)[C@@H]42 (some centres not stated)	> 200 µM	105 µM	–
C/C=C/C=Nc1c(C#N)c2n(c1C(=O)Nc1ccc(OC)cc1)CCC2	> 200 µM	> 200 µM	–
CC1(C)OC(=S)N(c2ccccc2)C12C=Cc1cc3ccccc3nc1S2 (configuration not stated)	> 3.72 µM	3.31 µM	–
CN(C(=O)C12C3C4(C(=O)O)C1(C(=O)N(C)C(C)(C)C)C1C2(C(=O)O)C3(C(=O)N(C)C(C)(C)C)C14C(=O)N(C)C(C)(C)C)C(C)(C)C (configuration not stated)	> 151 µM	> 151 µM	–
COc1ccc2cc3[nH]c(=O)cc(O)c3cc2c1OC	–	–	inactive
CCN(CC)C(=S)SS(=O)(=O)c1ccccc1[N+](=O)[O-]	> 200 µM	7.24 µM	–
S=C(S)N(Cc1ccccc1)Cc1ccccc1	> 200 µM	24.5 µM	–
CC(=C/c1ccccc1)/C=C1/SC(=S)N(C=C2C(=O)NC(=O)NC2=O)C1=O	> 200 µM	60.3 µM	–
COC(=O)c1cccc(OC)c1C#Cc1c(OC)cccc1OC	> 200 µM	21.9 µM	–
Nc1c(-c2ccc(Cl)cc2Cl)[n+]([O-])c2ccccc2[n+]1[O-]	–	–	inactive
COc1ccc(N2C(=O)C3c4[nH]c5ccc(F)cc5c4C4CCC(c5ccccc5)CC4C3C2=O)cc1 (configuration not stated)	> 200 µM	36.3 µM	–
COCCCNc1nc(N)c(C#N)c(C#N)c1C#N	–	–	inactive
O=C1/C(=C/c2cccs2)NC(=S)N1CN1CCCCC1	> 200 µM	33.1 µM	–

Compound	EC50	IC50	outcome
CN(C)c1ccc(/C=C(\NC(=O)c2ccccc2)C2=NC(CCC(=O)O)C(=O)O2)cc1 (configuration not stated)	> 50.1 µM	> 50.1 µM	–
O=C1/C(=C/c2ccccc2[N+](=O)[O-])CCCc2ccccc21	> 200 µM	34.7 µM	–
CC1OC(n2cc(I)c(=O)[nH]c2=O)C=CC1=O (configuration not stated)	> 347 µM	2.14 µM	–
CCN(CC)Cc1cc(O)c(CN(CC)CC)cc1O	> 891 µM	72.4 µM	–
Cc1c(Cl)cccc1Nc1ncccc1C(=O)O	> 200 µM	> 100 µM	–
O=[N+]([O-])/C=C/c1cn(CCCCCCCCCCCCn2cc(/C=C/[N+](=O)[O-])c3ccccc32)c2ccccc12	> 100 µM	> 100 µM	–
CCCCn1c(N)c(N=O)c(=O)n(CCCC)c1=O	> 200 µM	89.1 µM	–
O=C1CCC2(c3ccc(Cl)cc3)Nc3ccc(Cl)cc3N12 (configuration not stated)	> 16.2 µM	> 16.2 µM	–
COc1ccc(C(=O)C(C(=O)CCC(=O)Nc2cccc(C(F)(F)F)c2)c2ccccc2)cc1 (configuration not stated)	> 11.2 µM	> 11.2 µM	–
CC1=N[C@@](C)(C2CC3C=CC2C3=O)COC1=O (some centres not stated)	> 288 µM	> 288 µM	–
COc1ccc(NS(=O)c2cccc(C)c2)cc1 (configuration not stated)	> 200 µM	11.2 µM	–
CN1C(C)(C)CC(=O)C(Br)C1(C)C (configuration not stated)	> 200 µM	117 µM	–
CCOC(=O)C1(C(=O)OCC)COC(=O)C1CN1Cc2cc3ccccc3nc2C1 (configuration not stated)	> 427 µM	47.9 µM	–
CC(C)(C)Cc1cssc1=S	> 200 µM	> 200 µM	–
COc1ccc(N=Nc2c(N)nn3cc4c(nc23)CCC4)cc1	–	–	inactive
CCOC(OC1=C(C#N)CCC1)C(CC)[Se]c1ccccc1 (configuration not stated)	> 70.8 µM	52.5 µM	–
O=[N+]([O-])C1(CO)COC2(OC1)c1ccccc1-c1ccccc12	–	–	inactive
CC(O)CCC(=O)NCCS(=O)(=O)O (configuration not stated)	> 200 µM	> 200 µM	–
N#Cc1nn(-c2ccc(Cl)cc2)c(N)c2c(=N)n3nc(-c4ccccc4)cc3nc12	> 9.12 µM	> 9.12 µM	–
COC(=O)[C@H](Cc1c[nH]c2ccccc12)NC(=O)OCC1OC(n2cc(C)c(=O)[nH]c2=O)CC1N=[N+]=[N-] (some centres not stated)	> 158 µM	132 µM	–
C[C@H](CCC(=O)O)[C@H]1CC[C@H]2[C@@H]3C(=O)C[C@@H]4C[C@H](O)CC[C@]4(C)[C@H]3C[C@H](O)[C@]12C	> 200 µM	> 200 µM	–
O=C(NC1CCCCC1)c1n[nH]nc1Cl	> 200 µM	> 200 µM	–
COc1cc(=O)cc(Cl)c(Cl)c1Cl	–	–	inactive

Compound	EC50	IC50	outcome
CC1(C)OC2COC3([C@@H]4OC(C)(C)O[C@@H]4CO)OC(C)(C)OC3C2O1 (some centres not stated)	> 200 µM	> 200 µM	–
COc1ccc(/C=C2\C=C3OCOC3=CC2=O)cc1	> 10.7 µM	> 10.7 µM	–
CCOC(=O)/C(=C\c1ccccc1OC)P(=O)(OCC)OCC	> 724 µM	13.2 µM	–
CCCCCCSSCCCCCC	> 200 µM	> 200 µM	–
CCCC(C(=O)OC)C1N=C(NC#N)N(Cc2ccccc2)C1=O (configuration not stated)	> 110 µM	> 110 µM	–
CCOC(=O)C(C(=O)OCC)C(C(=O)OCC)C(=O)OCC	> 200 µM	> 200 µM	–
CN=c1ssc(/N=C(\SC)N(C)C)[n+]1C	–	–	inactive
O=C1/C(=C/c2cccc([N+](=O)[O-])c2)Cc2ccccc21	> 200 µM	> 200 µM	–
O=NN1C(c2ccccc2)CNC(=O)CC1c1ccccc1 (configuration not stated)	–	–	inactive
COc1ccc2[nH]c(C)cc2c1CN	> 575 µM	120 µM	–
CCc1n[nH]c(=O)n1NC(=O)/C=C\C(=O)O	> 200 µM	> 200 µM	–
O=C1CC2OCC=C3CN4CCC5(C(=O)O)C(N1)C2C3CC45 (configuration not stated)	> 813 µM	> 813 µM	–
CC1C(NNc2ccccc2)Oc2cc3c(cc2C1c1ccccc1O)OCO3 (configuration not stated)	–	–	inactive
O=C(NC(=S)NC(=O)c1cc(O)c(O)c(O)c1)c1cc(O)c(O)c(O)c1	> 200 µM	4.27 µM	–
Cc1c(C(=N)N)oc2ccccc12	–	–	inactive
O=C(O/N=C1/CCCC/C1=C\c1ccccc1)c1ccc(Cl)cc1	–	–	inactive
CC(N)C(=O)NC(CO)C(=O)NC(Cc1ccc(O)cc1)C(=O)NC(CO)C(=O)NC(C(=O)O)C(C)O (configuration not stated) (H-ASYST-OH; configuration not given here)	> 95.5 µM	> 95.5 µM	–
CC12CCCCC1=[N+]([O-])C(C)(C)N2O (configuration not stated)	> 200 µM	> 200 µM	–
O=C1CC(c2ccccc2)=Nc2ccccc2N1	> 151 µM	> 151 µM	–
Cc1ncc([N+](=O)[O-])n1CCNS(=O)(=O)CCCn1ncnc1[N+](=O)[O-]	> 200 µM	> 200 µM	–
O=C(O/N=C1\CCCC\C1=C/c1ccccc1)c1ccc([N+](=O)[O-])cc1	–	–	inactive
N#C/C(=C\c1ccccc1)S(=O)(=O)/C(C#N)=C/c1ccc(O)c(O)c1	> 200 µM	29.5 µM	–
CC(=O)CC1CCC(=O)/C=C/C(=O)OC(CC(C)=O)CCC(=O)/C=C/C(=O)O1 (configuration not stated)	> 200 µM	1.91 µM	–

Compound	EC50	IC50	outcome
CC1=CC2Cc3ccoc3C(C)(C)C2CC1 (configuration not stated)	–	–	inactive
COC(=O)c1ccccc1/C=C1\Cc2cc3c(cc2C1=O)CCC3	> 200 µM	45.7 µM	–
C/C(C(=O)O)=C(\C)c1ccccc1	> 200 µM	> 200 µM	–
CC(C)[C@H](NC(=O)OCc1ccccc1)C(=O)N[C@H](/C=C/C(=O)OC(C)(C)C)CO	> 200 µM	97.7 µM	–
O=C1CNC(=O)c2[nH]cnc2N1	–	–	inactive
CS[C@]12[C@@H]3C(=O)N(C)C(=O)[C@@H]3[C@](C)(C(=O)N1C)C(=O)N2c1ccccc1	> 200 µM	> 200 µM	–
Nc1nc(N)c(CCCCc2ccccc2)c(Cc2ccccc2)n1	–	–	inactive
CCOC(=O)C(C)(C)Oc1ccc2c(-c3ccc(Cl)cc3)cc(=O)oc2c1	> 13.5 µM	> 13.5 µM	–
Fc1cccc(C2SCc3nc4ncccc4n32)c1 (configuration not stated)	> 132 µM	> 132 µM	–
N#C/C(=C\N1C(=O)/C(=C/c2cccc([N+](=O)[O-])c2)SC1=S)c1nc2ccccc2s1	> 200 µM	29.5 µM	–
CC(=O)NNc1nc(C)c(C(=O)NNC(=O)C(=O)Nc2c(C)cccc2C(C)(C)C)s1	> 151 µM	26.3 µM	–
CCCCCCCCCc1cc(=O)c2c(O)cc(O)cc2o1	–	–	inactive
COC(=O)/C(=N\NC(C)(C)C)C(C(=O)OC)C(=O)C(=O)Nc1cc(Cl)ccc1Cl (configuration not stated)	–	–	inactive
CN(C)c1ccc(/C=C(\NC(=O)c2ccccc2)C2=NC(CC(=O)O)C(=O)O2)cc1 (configuration not stated)	> 50.1 µM	> 50.1 µM	–
CCOC(=O)n1[nH][nH]c2c(c(=O)n(C)c(=O)n2C)n1C(=O)OCC	> 200 µM	> 200 µM	–
CC12CC3CC(C)(C1)CC(CN=C(N)CS)(C3)C2	> 200 µM	31.6 µM	–
COc1ccc2c(c1)CC[C@@H]1C2CC[C@]2(C)OC(=O)CCC12 (some centres not stated)	> 87.1 µM	12 µM	–
O=[N+]([O-])C(/C(Cl)=C(\Cl)Br)=C(/Cl)SCc1ccccc1	> 200 µM	1.78 µM	–
Cc1ccc(N=Nc2c(C)c(C#N)c(=S)n(C3OC(CO)C(O)C(O)C3O)c2C)cc1 (configuration not stated)	> 200 µM	19.1 µM	–
Cc1cc(C)c2c(=N)c3ccccc3n(CCCCCCO)c2n1	> 200 µM	1.38 µM	–
COc1nc2c(c(=O)n1C)N=C(c1ccc(Cl)cc1)CC(c1ccccc1)N2 (configuration not stated)	> 200 µM	30.9 µM	–
